Reference: patent US20060135494A1, “Methods of treating injuries of the nervous system associated with hemorrhage” (priority 2002, published 2006)

Tests used:
[1] = system: collagenase-induced intrastriatal hemorrhage (ICH); test: Hematoma (hemorrhagic lesion) volume in collagenase-induced ICH rat model; assay type: in vivo; settings: for Protection (%) ICH core / Protection (%) Peri-ICH: mean ± SEM
Source text: All animals received humane care in compliance with the institute's guidelines as outlined in “Guide for the Care and Use of Laboratory Animals” prepared by the National Academy of Sciences and published by the National Institutes of Health (NIH publication no. 86-23, revised 1985). Female Sprague-Dawley rats (250-300 grams (g); Harlan Sprague-Dawley, Inc., Indianapolis, Ind.) were anesthesized with an intramuscular injection of a mixture of ketamine and xylazine and set in supine in a Kopf headholder. The right carotid artery, external and internal branches, was exposed and the distal end of the external carotid freed and retracted to line with the internal carotid. A PE-10 polyethylene tube (Becton-Dickinson, Sparks, Md.) was then introduced from the external into the internal carotid artery, and the former was ligated to hold the tube. TUDCA (Calbiochem-Novabiochem Corp., San Diego, Calif.) was dissolved in phosphate buffer, pH 7.4 at […] milligrams per milliliter (mg/ml). Saline or TUDCA solution (1 milliliter per kilogram body weight (ml/kg bw)) were injected directly into the internal carotid artery, within 5 minutes. Different concentrations of TUDCA (10, 50, 100, and 200 mg/kg bw) were administered 1 hour prior to, or 1, 3, and 6 hours after collagenase injection. The polyethylene tube was finally removed, the end of the external carotid artery cauterized, and the wound closed. To induce stroke injury, the animals were placed in a stereotaxic apparatus and ICH induced by collagenase infusion (Rosenberg et al., Stroke 1990;21:801-807 and Chesney et al., Stroke 1995;26:312-316). In brief, a midline incision was made through the scalp to expose the skull. […] (0.5 microliters per minute (μL/min)) of saline containing 0.5 unit (U) bacterial collagenase (type VII; Sigma Chemical Co., St. Louis, Mo.) was made stereotaxically into the striatum with a 10-μl Hamilton syringe at the following coordinates: 0.4 millimeter (mm) anterior and 3.0 mm lateral to bregma and 5.0 mm ventral to the cortical surface. Once the infusion was complete, the Hamilton syringe was left in place for 3 minutes. Body temperature was maintained at 37° C. with a CMA/150 temperature controller throughout the surgery. The rats recovered from surgery in a cage containing food and heated by an incandescent light bulb. Neurological testing was performed at 2 days after induction of ICH. The animals were then sacrificed, and the brains removed and frozen at −70° C. for either serial cryostat sectioning, or RNA and protein extraction. In a subset of animals, serum and brain samples were collected for bile acid analysis.
After behavioral testing, rats were sacrificed and the brains removed for serial cryostat sectioning. Volumes of hemorrhagic lesion, including core and peri-ICH regions, were quantitated using unbiased stereologic volumetric analysis of 20-μm cryostat sections after staining according to the Nissl protocol. Volumetric analysis was performed according to Cavalieri's method (Howard et al, Unbiased stereology: three-dimensional measurement in microscopy. New York: BIOS Scientific Publishers Ltd 1998). The areas of lesion were determined in 11 Nissl-stained sections 20 μm in thickness, 900 μm apart, from each animal. Volumes (mm^3) were calculated according to the formula V=T×a/p×ΣPi, where V=volume of interest, T=distance between sections (mm), a/p=area associated with each point (mm^2), and Pi=points hitting object in each section.

caspase-3-like proteases = test: DEVD-specific caspase activity in ICH rat brain tissue; assay type: in vivo
Source text: All animals received humane care in compliance with the institute's guidelines as outlined in “Guide for the Care and Use of Laboratory Animals” prepared by the National Academy of Sciences and published by the National Institutes of Health (NIH publication no. 86-23, revised 1985). Female Sprague-Dawley rats (250-300 grams (g); Harlan Sprague-Dawley, Inc., Indianapolis, Ind.) were anesthesized with an intramuscular injection of a mixture of ketamine and xylazine and set in supine in a Kopf headholder. The right carotid artery, external and internal branches, was exposed and the distal end of the external carotid freed and retracted to line with the internal carotid. […]
Caspase activation was determined in dissected brain tissue from the ispilateral and corresponding contralateral areas. […] General caspase activity was evaluated by enzymatic cleavage of chromophore p-nitroanilide (pNA) from the substrate N-acetyl-Asp-Glu-Val-Asp-pNA (DEVD-pNA; Sigma Chemical Co.). […] The reaction mixtures were incubated at 37° C. for 1 hour, and the formation of pNA was measured at 405 nm using a 96-well plate reader. Protein concentrations were determined using the Bio-Rad protein assay kit (Bio-Rad Laboratories, Hercules, Calif.) according to the manufacturer's specifications.

[2] = Bile acid analysis of serum and brain; assay type: in vivo, rat; settings: single 100 mg/kg bw arterial dose
Source text: (§1) All animals received humane care in compliance with the institute's guidelines as outlined in “Guide for the Care and Use of Laboratory Animals” prepared by the National Academy of Sciences and published by the National Institutes of Health (NIH publication no. 86-23, revised 1985). Female Sprague-Dawley rats (250-300 grams (g); Harlan Sprague-Dawley, Inc., Indianapolis, Ind.) were anesthesized with an intramuscular injection of a mixture of ketamine and xylazine and set in supine in a Kopf headholder. The right carotid artery, external and internal branches, was exposed and the distal end of the external carotid freed and retracted to line with the internal carotid. A PE-10 polyethylene tube (Becton-Dickinson, Sparks, Md.) was then introduced from the external into the internal carotid artery, and the former was ligated to hold the tube. […]
Normal controls and rats with intrastriatal hematoma were sacrificed 1, 3, and 6 hours after TUDCA or vehicle injection. […] Bile acids were assessed by gas chromatography after organic solvent extraction, purification on Lipidex 1000, liquid-solid extraction, hydrolysis, isolation by lipophilic anion exchange chromatography and conversion to methyl ester-trimethylsilyl ether derivatives (Setchell et al., Gastroenterology 1997;112:226-235). Bile acid concentrations were expressed as nmol/g of tissue or as μmol/l of serum.

collagenase-induced ICH = test: Neurological testing: limb placement / step initiation after ICH; assay type: in vivo, rat
Source text: as §1
The animals were tested for rotational behavior in response to apomorphine 2 days after surgery. Apomorphine (1 mg/kg bw; Sigma Chemical Co.) was injected subcutaneously, and rotations were determined by a computer-controlled Columbus Instruments Videomex-V system (Columbus, Ohio). […] Step initiation was assessed at 2 days after ICH by independently analyzing stepping behavior in the left and right forelimbs. […] The number of steps initiated by each limb was counted during a 1-minute period.

[3] = 100 mg/kg bw TUDCA administered at 1 h
[4] = 100 mg/kg bw TUDCA administered at 3 h
[5] = 100 mg/kg bw TUDCA administered at 6 h

C[C@H](CCC(=O)NCCS(=O)(=O)O)[C@H]1CC[C@H]2[C@@H]3[C@@H](O)C[C@@H]4C[C@H](O)CC[C@]4(C)[C@H]3CC[C@]12C [TUDCA, tauroursodeoxycholic acid]
hemorrhagic lesions larger in vehicle-injected group compared with TUDCA-treated rats ([1]; 100 mg/kg bw TUDCA 1 hour before collagenase, 2 days): approximately 50% | protective effect on volume of brain lesioned ([1]; 100 mg/kg bw TUDCA 1 hour before or up to 3 hours after hemorrhage, 2 days): 40-50% | protective effect on volume of brain lesioned ([1]; 100 mg/kg bw TUDCA 6 hours after collagenase infusion): partially lost but still evident | Protection (%) ICH core [1, 3]: 47.7 ± 3.2 % | Protection (%) Peri-ICH [1, 3]: 48.6 ± 3.5 % | Protection (%) ICH core [1, 4]: 30.0 ± 18.9 % | Protection (%) Peri-ICH [1, 4]: 42.8 ± 14.9 % | Protection (%) ICH core [1, 5]: 20.9 ± 12.9% | Protection (%) Peri-ICH [1, 5]: 38.7 ± 12.9 % | hemorrhagic lesion volume ([1]; 100 mg/kg bw TUDCA into internal carotid artery 1 hour before collagenase, 2 days after infusion, mean±SEM): 143.9±46.5 mm^3 | reduction in lesion volume ([1]; 200 mg/kg bw TUDCA 1 hour before collagenase, 2 days): ~60% | protection of lesion volume ([1]; 10 and 50 mg/kg bw dose regimens, 1 hour before collagenase): significantly less protective | caspase activity versus vehicle-injected animals (caspase-3-like proteases; 100 mg/kg bw TUDCA, time-course 1 hour before to 6 hours after collagenase): remained markedly lower | reduction of caspase activation in the lesioned hemisphere (caspase-3-like proteases; 100 and 200 mg/kg bw TUDCA 1 hour before collagenase): 45-60% | concentration at 3 h ([2]; female, Sprague-Dawley, rat, serum, other: injected directly into the internal carotid artery, 3 hours following injection (from 0.3)): 10.6 µM | increase in brain concentrations of the bile acid compared with vehicle-injected controls ([2]; 3 hours): 10 fold | improved motor activity in test of limb placement (collagenase-induced ICH; time-course experiment of TUDCA administration, 2 days after ICH): 25-40% | steps initiated by left forelimb in 1-minute period versus vehicle (collagenase-induced ICH; unilateral striatal hemorrhage, 2 days): significantly more steps
